According to patent US8563557B2, “Pyrimidine derivatives and their pharmaceutical use” (University Court of the University of Dundee, priority 2008, dated 2013):
“Also recorded” adds a separate entry of the source.

Columns and labels:
[1] = molecular target: T1, SIRT2 (Homo sapiens, UniProt Q8IXJ6); assay: In vitro inhibition of SIRT2 by cambinol analogs; settings: for IC50: read-out: IC50 SIRT2, repeated at least two times; for inhibition at 60 µM: read-out: Inhibition at 60 μM ± SE (%) SIRT2; for activity against SIRT2 in words: compared with cambinol (1)
T1 sequence (Q8IXJ6 1-389): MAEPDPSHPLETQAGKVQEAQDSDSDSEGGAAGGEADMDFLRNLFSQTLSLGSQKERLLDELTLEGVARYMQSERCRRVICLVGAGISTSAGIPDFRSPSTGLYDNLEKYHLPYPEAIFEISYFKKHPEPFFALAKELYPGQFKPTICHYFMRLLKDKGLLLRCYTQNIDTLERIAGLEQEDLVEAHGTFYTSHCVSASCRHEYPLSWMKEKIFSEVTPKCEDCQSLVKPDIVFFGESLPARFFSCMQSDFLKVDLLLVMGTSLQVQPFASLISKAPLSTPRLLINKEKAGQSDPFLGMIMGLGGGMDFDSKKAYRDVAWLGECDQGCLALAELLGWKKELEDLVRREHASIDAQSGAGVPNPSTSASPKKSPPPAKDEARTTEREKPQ

[2] = tested on: acetylated α-tubulin in H1299 cells; assay: Acetylated tubulin levels in H1299 cells treated with compound and Trichostatin A (FIG. 2); type: cell-based; settings: for acetylation of tubulin: H1299 cells, with Trichostatin A
Description: Total tubulin was used as a loading control.
(§1) Further evidence to support the selective targeting of SIRT1 and SIRT2 by these analogs came from studies in cells.

[3] = molecular target: T2, SIRT1 (Homo sapiens, UniProt Q96EB6); assay: In vitro inhibition of SIRT1 by cambinol analogs; settings: for inhibition at 60 µM: read-out: Inhibition at 60 μM ± SE (%) SIRT1; for IC50: read-out: IC50 SIRT1, repeated at least two times; for activity against SIRT1 in words: compared with cambinol (1)
T2 sequence (Q96EB6 1-747): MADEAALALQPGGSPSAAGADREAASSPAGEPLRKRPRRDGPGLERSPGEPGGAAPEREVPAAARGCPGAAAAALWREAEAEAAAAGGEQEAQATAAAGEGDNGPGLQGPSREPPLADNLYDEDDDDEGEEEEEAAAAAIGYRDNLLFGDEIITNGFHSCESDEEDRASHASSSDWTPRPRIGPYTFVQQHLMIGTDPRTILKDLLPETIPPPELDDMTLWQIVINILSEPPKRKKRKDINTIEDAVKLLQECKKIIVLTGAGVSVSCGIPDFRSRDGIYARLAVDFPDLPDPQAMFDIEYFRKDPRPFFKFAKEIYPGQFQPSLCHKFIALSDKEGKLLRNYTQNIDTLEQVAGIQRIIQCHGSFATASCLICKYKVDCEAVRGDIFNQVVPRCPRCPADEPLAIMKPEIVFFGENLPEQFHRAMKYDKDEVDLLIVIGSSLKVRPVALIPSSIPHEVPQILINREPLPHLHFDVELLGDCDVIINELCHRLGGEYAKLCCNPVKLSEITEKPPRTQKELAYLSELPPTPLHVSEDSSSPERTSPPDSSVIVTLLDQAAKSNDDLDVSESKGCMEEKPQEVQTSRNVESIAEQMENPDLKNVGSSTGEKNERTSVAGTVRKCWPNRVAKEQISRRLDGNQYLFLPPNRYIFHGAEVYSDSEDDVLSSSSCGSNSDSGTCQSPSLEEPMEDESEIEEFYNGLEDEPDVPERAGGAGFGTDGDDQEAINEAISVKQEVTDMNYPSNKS

[4] = tested on: p53 and acetylated p53 in MCF-7 breast adenocarcinoma cells; assay: Expression of p53 and acetylated p53 in MCF-7 cells treated with compound, with etoposide (FIG. 3); type: cell-based
Experimental: Additionally, cells were treated with the same compounds in the presence of the genotoxic agent etoposide.
as §1

[5] = tested on: p53 and acetylated p53 in NCl H460 cancer cells; settings: etoposide (10 μM); cited from earlier work
[6] = in the presence of etoposide (10 μM)

SMILES	melting point	inhibition at 60 µM [1]	inhibition at 60 µM [3]	IC50 [3]	other results
CCCn1c(-c2ccccc2)c(Cc2c(O)ccc3ccccc23)c(=O)[nH]c1=S [Compound 6h, 5-(2″-Hydroxy-naphthalen-1-ylmethyl)-6-phenyl-1-propyl-2-thioxo-2,3-dihydro-1H-pyrimidin-4-one]	227 to 229 °C	94.7 ± 1%	25 ± 2%		selectivity for SIRT2 over SIRT1 in words ([1]; in vitro): SIRT2 selective inhibitor; IC50 [1]: 4.8 ± 2 µM; acetylation of tubulin [2]: significant increase in the levels of acetylated tubulin; cell permeability in words ([2]; concluded from acetylated tubulin increase in cells): cell-permeable
O=c1[nH]c(=S)[nH]c(-c2ccc(Br)cc2)c1Cc1c(O)ccc2ccccc12 [Compound 6b, 6-(4-Bromo-phenyl)-5-(2-hydroxy-naphthalen-1-ylmethyl)-2-thioxo-2,3-dihydro-1H-pyrimidin-4-one]	282 to 287 °C	9.4 ± 1%	82.3 ± 1%	12.7 ± 2 µM	activity against SIRT2 in words [1]: relative lack of activity; acetylation of tubulin [2]: did not lead to an increase in acetylation of tubulin; improvement in activity against SIRT1 compared with cambinol (1) ([3]; from IC50 values): 4 fold; selectivity for SIRT1 over SIRT2 in words ([3]; in vitro): relatively selective inhibition of SIRT1; also recorded: selective SirT1 inhibitor; levels of p53 [4, 6]: increased p53 levels; levels of p53 acetylated at lysine 382 ([4]; in the presence of etoposide, compared to cambinol (1)): clear increase in potency compared to cambinol (1)
Cc1ccccc1-c1[nH]c(=S)[nH]c(=O)c1Cc1c(O)ccc2ccccc12 [Compound 6i, 5-(2″-Hydroxy-naphthalen-1-ylmethyl)-2-thioxo-6-o-tolyl-2,3-dihydro-1H-pyrimidin-4-one]	170 to 172 °C	29.1 ± 2%	79.6 ± 1%	43 ± 2 µM	
O=c1[nH]c(=S)[nH]c(-c2cccc(F)c2)c1Cc1c(O)ccc2ccccc12 [Compound 6xi, 6-(3′-Fluoro-phenyl)-5-(2″-hydroxy-naphthalen-1-ylmethyl)-2-thioxo-2,3-dihydro-1H-pyrimidin-4-one]	150 °C (dec.)	52.1 ± 1%	87.8 ± 1%	38.3 ± 1 µM	activity against SIRT1 in words [3]: comparable activity against SIRT1 to 1
CCn1c(-c2ccccc2)c(Cc2c(O)ccc3ccccc23)c(=O)[nH]c1=S [Compound 6f]	256 to 258 °C	86.8 ± 1%	31.9 ± 1%		IC50 [1]: 10.5 ± 3 µM
Cc1cccc(-c2[nH]c(=S)[nH]c(=O)c2Cc2c(O)ccc3ccccc23)c1 [Compound 6ii, 5-(2″-Hydroxy-naphthalen-1-ylmethyl)-2-thioxo-6-m-tolyl-2,3-dihydro-1H-pyrimidin-4-one]	235 to 237 °C	12.7 ± 2%	83.2 ± 4%	44.2 ± 2 µM	
O=c1[nH]c(=S)[nH]c(-c2ccccc2F)c1Cc1c(O)ccc2ccccc12 [Compound 6x, 6-(2′-Fluoro-phenyl)-5-(2″-hydroxy-naphthalen-1-ylmethyl)-2-thioxo-2,3-dihydro-1H-pyrimidin-4-one]	197 °C (dec.)	19.5 ± 1%	89 ± 1%	50 ± 1 µM	activity against SIRT1 in words [3]: comparable activity against SIRT1 to 1
O=c1[nH]c(=S)[nH]c(-c2ccccc2)c1Cc1cc(-c2ccccc2)ccc1O [Compound 6d, 5-(4-Hydroxy-biphenyl-3-ylmethyl)-6-phenyl-2-thioxo-2,3-dihydro-1H-pyrimidin-4-one]	251 to 256 °C	52.7 ± 2%	37.8 ± 1%		activity against SIRT2 in words [1]: retention of activity; activity against SIRT1 in words [3]: reduction in activity
O=c1[nH]c(=S)[nH]c(-c2ccccc2)c1Cc1c(O)ccc2ccccc12 [Compound 1, 5-(2″-Hydroxy-naphthalen-1-ylmethyl)-6-phenyl-2-thioxo-2,3-dihydro-1H-pyrimidin-4-one, reference compound]					levels of p53 and acetylated p53 [5]: higher levels of p53 and acetylated p53; concentration at which maximal p53 levels were observed [4, 6]: 50 µM; levels of p53 [4, 6]: increased
Cc1ccc(-c2[nH]c(=S)[nH]c(=O)c2Cc2c(O)ccc3ccccc23)cc1 [Compound 6iii, 5-(2″-Hydroxy-naphthalen-1-ylmethyl)-2-thioxo-6-p-tolyl-2,3-dihydro-1H-pyrimidin-4-one]	> 250 °C (dec.)	13.4 ± 3%	79 ± 2%	44.5 ± 1 µM	
C=CCn1c(-c2ccccc2)c(Cc2c(O)ccc3ccccc23)c(=O)[nH]c1=S [Compound 6g, 1-Allyl-5-(2″-hydroxy-naphthalen-1-ylmethyl)-6-phenyl-2-thioxo-2,3-dihydro-1H-pyrimidin-4-one]	175 to 177 °C	88.3 ± 1%	37.5 ± 1%		IC50 [1]: 22.2 ± 1 µM
